What was measured:
[1] = system: Rhodococcus maris-derived phenylalanine dehydrogenase; details: cited from earlier work
[2] = system: amino acid dehydrogenase; experiment: Substrate specificity of the purified amino acid dehydrogenase (reductive amination of 2-oxo acids); format: biochemical, Rhodococcus qingshengii strain KNK2108; details: activity for phenylpyruvic acid = 100%; 30° C., pH 9.0; naphthylpyruvic and indolepyruvic acid by HPLC of the product formed in 30 minutes
Description: In the embodiments, the amino acid dehydrogenase activity of the polypeptide can be measured, for example, based on the rate of decline in the absorbance at a wavelength of 340 nm when 1.2 mL of 0.5 M NH3/NH4Cl buffer (pH 9.0), 0.2 mL of 0.1 M sodium carbonate buffer (pH 9.0) containing 3 mM NADH coenzyme, and 0.1 mL of an appropriately diluted enzyme solution are added to 1.5 mL of 0.1 M sodium carbonate buffer (pH 9.0) containing 10 mM phenylpyruvic acid as substrate and a reaction is run for 1 minute at 30° C. In the embodiments, the amino acid dehydrogenase activity was measured using this method unless indicated otherwise.
The activity of the amino acid dehydrogenase was measured based on the rate of decline in the absorbance at a wavelength of 340 nm when 1.2 mL of 0.5 M NH3/NH4Cl buffer (pH 9.0), 0.2 mL of 0.1 M sodium carbonate buffer (pH 9.0) that contained 3 mM NADH coenzyme, and 0.1 mL of the appropriately diluted enzyme solution were added to 1.5 mL of 0.1 M sodium carbonate buffer (pH 9.0) that contained 10 mM phenylpyruvic acid substrate and a reaction was carried out for 1 minute at 30° C. 1 unit is defined here as the quantity of enzyme that consumed 1 μmol NADH in 1 minute. The protein was quantified by the Bradford method using BSA as the reference protein.
The substrate specificity of the purified amino acid dehydrogenase was investigated. The enzyme activity was measured by using each substrate in place of the phenylpyruvic acid substrate in the procedure previously described for measuring the enzyme activity. In the case of the enzyme activity for naphthylpyruvic acid, 100 μL of the appropriately diluted enzyme solution was added to 100 μL of 0.1 M sodium carbonate buffer (pH 9.0) that contained 1.0 mg naphthylpyruvic acid, 12.3 mg ammonium sulfate, and 6.1 mg NADH and the increment in the 2-naphthylalanine produced in 30 minutes at 30° C. was determined by quantitation by HPLC. The HPLC analysis was run using the following: column: COSMOSIL 5C18-ARII (4.6 mm×250 mm, Nacalai Tesque, Inc.), eluent: 10 mM potassium phosphate buffer (pH 2.0)/acetonitrile=5/1, flow rate: 1.0 mL/min, column temperature: 40° C., detection: 210 nm. Here, 1 unit is defined as the quantity of enzyme that produces 1 μmol 2-naphthylalanine in 1 minute. In the case of the enzyme activity for indolepyruvic acid, 100 μL of the appropriately diluted enzyme solution was added to 100 μL of 0.1 M sodium carbonate buffer (pH 9.0) that contained 2.0 mg indolepyruvic acid, 26.0 mg ammonium sulfate, and 7.6 mg NADH and the increment in the L-tryptophan produced in 30 minutes at 30° C. was determined by quantitation by HPLC. The HPLC analysis was run using the following: column: CROWNPAK CR—(4.6 mm×150 mm, Daicel Chemical Industries, Ltd.), eluent: aqueous HClO4 (pH 2.0), flow rate: 1.0 mL/min, column temperature: 30° C., detection: 210 nm. Here, 1 unit is defined as the quantity of enzyme that produces 1 μmol L-tryptophan in 1 minute.

[3] = molecular target: Thermoactinomyces intermedius-derived phenylalanine dehydrogenase (Thermoactinomyces intermedius, UniProt P22823); details: cited from earlier work
Chain of Thermoactinomyces intermedius-derived phenylalanine dehydrogenase (P22823 whole entry): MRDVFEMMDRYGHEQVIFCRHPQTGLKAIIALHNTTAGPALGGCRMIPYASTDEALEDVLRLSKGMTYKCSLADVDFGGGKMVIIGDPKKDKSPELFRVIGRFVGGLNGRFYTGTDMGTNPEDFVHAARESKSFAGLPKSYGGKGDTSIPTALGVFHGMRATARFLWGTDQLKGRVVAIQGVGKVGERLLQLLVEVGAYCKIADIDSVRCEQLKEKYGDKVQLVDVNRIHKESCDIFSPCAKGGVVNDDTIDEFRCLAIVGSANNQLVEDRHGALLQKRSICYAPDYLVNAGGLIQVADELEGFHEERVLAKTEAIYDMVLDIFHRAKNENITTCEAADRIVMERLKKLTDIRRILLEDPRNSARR

[4] = molecular target: Rhodococcus sp.-derived phenylalanine dehydrogenase (Rhodococcus sp, UniProt Q59771); details: cited from earlier work
Chain of Rhodococcus sp.-derived phenylalanine dehydrogenase (Q59771 whole entry): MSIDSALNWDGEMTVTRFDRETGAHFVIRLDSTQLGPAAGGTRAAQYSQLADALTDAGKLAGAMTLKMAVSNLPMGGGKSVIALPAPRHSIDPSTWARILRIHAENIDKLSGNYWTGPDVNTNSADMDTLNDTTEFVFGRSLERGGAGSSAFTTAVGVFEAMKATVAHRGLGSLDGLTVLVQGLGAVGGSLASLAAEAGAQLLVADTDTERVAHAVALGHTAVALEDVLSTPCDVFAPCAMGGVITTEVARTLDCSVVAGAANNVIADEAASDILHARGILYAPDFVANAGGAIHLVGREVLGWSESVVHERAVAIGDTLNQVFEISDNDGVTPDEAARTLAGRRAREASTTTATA

[5] = molecular target: Bacillus sphaericus-derived phenylalanine dehydrogenase (Lysinibacillus sphaericus, UniProt P23307); details: cited from earlier work
Chain of Bacillus sphaericus-derived phenylalanine dehydrogenase (P23307 whole entry): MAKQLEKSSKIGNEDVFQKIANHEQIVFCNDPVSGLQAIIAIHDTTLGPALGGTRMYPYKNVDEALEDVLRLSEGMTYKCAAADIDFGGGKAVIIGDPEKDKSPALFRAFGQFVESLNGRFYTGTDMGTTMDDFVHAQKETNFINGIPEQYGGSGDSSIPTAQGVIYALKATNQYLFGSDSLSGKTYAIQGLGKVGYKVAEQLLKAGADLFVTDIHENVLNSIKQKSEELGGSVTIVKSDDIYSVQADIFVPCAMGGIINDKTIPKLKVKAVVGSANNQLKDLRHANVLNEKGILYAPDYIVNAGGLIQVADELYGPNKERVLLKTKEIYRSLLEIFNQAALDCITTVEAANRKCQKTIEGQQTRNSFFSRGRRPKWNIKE

[6] = system: Microbacterium sp.-derived phenylalanine dehydrogenase; details: cited from earlier work
[7] = molecular target: T1, Sporosarcina ureae-derived phenylalanine dehydrogenase (Sporosarcina ureae, UniProt P97014); details: cited from earlier work
T1 sequence (P97014 1-379): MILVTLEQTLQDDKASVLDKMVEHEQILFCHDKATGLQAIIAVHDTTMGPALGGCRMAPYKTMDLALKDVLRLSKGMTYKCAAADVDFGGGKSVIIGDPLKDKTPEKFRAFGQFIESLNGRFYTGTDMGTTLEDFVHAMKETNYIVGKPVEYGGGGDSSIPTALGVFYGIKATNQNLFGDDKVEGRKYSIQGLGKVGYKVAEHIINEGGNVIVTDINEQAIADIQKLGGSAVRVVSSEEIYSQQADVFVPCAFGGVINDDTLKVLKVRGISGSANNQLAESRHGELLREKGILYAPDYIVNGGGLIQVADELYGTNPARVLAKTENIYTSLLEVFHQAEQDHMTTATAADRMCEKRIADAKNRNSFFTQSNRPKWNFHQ

Row | Compound | Relative activity (%) [2] [%] | enzymatic activity taking the enzymatic activity for phenylpyruvic acid to be 100 [5] | also measured
1 | CSCCC(=O)C(=O)O [2-Oxo-4-(methylthio)butanoic acid] | 34.6 |  | enzymatic activity taking the enzymatic activity for phenylpyruvic acid to be 100 [1]: 9
2 | CC(C)CC(=O)C(=O)O [2-Oxo-4-methylvaleric acid] | 3.5 |  | 
3 | O=C(O)C(=O)Cc1ccc(O)cc1 [4-Hydroxyphenylpyruvic acid] | 96.3 |  | enzymatic activity taking the enzymatic activity for phenylpyruvic acid to be 100 [3]: 0; enzymatic activity taking the enzymatic activity for phenylpyruvic acid to be 100 [4]: 5
4 | O=C(O)C(=O)CCc1ccccc1 [Homophenylpyruvic acid] | 19.1 | 3.4 | enzymatic activity taking the enzymatic activity for phenylpyruvic acid to be 100 [6]: 0.1
5 | O=C(O)C(=O)Cc1c[nH]c2ccccc12 [Indolepyruvic acid] | 19.7 | 0.39 | enzymatic activity taking the enzymatic activity for phenylpyruvic acid to be 100 [1]: 5; enzymatic activity taking the enzymatic activity for phenylpyruvic acid to be 100 [4]: 3; enzymatic activity taking the enzymatic activity for phenylpyruvic acid to be 100 [7]: 0.73
6 | O=C(O)C(=O)Cc1ccccc1 [Phenylpyruvic acid] | 100.0 |  | 
7 | Naphthylpyruvic acid | 38.8 | 0.46 | 

— patent publication US9267116B2, “Amino acid dehydrogenase, and process for producing L-amino acid, 2-oxo acid or D-amino acid” (KANEKA CORPORATION, priority 2008, dated 2016)
